The numbers were not newly measured in patent US20090226522A1, “PROCESS TO MINIMIZE POLYMORPHISM” (priority 2008, published 2009), which cites them from elsewhere.

Each structure is given as a SMILES string. Like-named read-outs stand apart in the source and are kept apart here.

Consider `Cc1nnc2n1-c1ccc(Cl)cc1C(c1ccccc1)=NC2` [Alprazolam, 8-chloro-1-methyl-6-phenyl-4H-s-triazolo[4,3-α][1,4]benzodiazepine], for which the “solubility in methanol or ethanol” value (methanol or ethanol) is reported as “soluble”. For the same molecule, the solubility in water entry is recorded as “poorly soluble” (water) and “no appreciable solubility” (water at physiological pH).
